This is an account of results in patent US6495491B1, “Substituted cyanophenyl uracils” (Bayer Aktiengesellschaft, priority 1995, dated 2002).

Common to all, as to format: in vivo
In experiment [1] the test system is Matricaria. The experiment in a line: Pre-emergence test, Matricaria. Particulars: application rates between 8 and 125 g/ha, after three weeks. How it is done:
(§1) Solvent: 5 parts by weight of acetone
(§2) Emulsifier: 1 part by weight of alkylaryl polyglycol ether
(§3) To produce a suitable preparation of active compound, 1 part by weight of active compound is mixed with the stated amount of solvent, the stated amount of emulsifier is added and the concentrate is diluted with water to the desired concentration.
(§4) Seeds of the test plants are sown in normal soil. After 24 hours, the soil is watered or sprayed with the preparation of the active compound. It is advantageous to keep the amount of water per unit area constant. The concentration of the active compound in the preparation is immaterial, only the amount of active compound applied per unit area matters.
(§5) After three weeks, the degree of damage to the plants is rated in % damage by comparison with the development of the untreated control.
(§6) 0%=no effect (like untreated control)

The test system of experiment [2] is Abutilon. Kind of experiment: Post-emergence test, Abutilon. Particulars: application rates between 30 and 500 g/ha, after three weeks. As for the experimental part: as §1, §2, §3
(§7) Test plants which have a height of 5-15 cm are sprayed with the preparation of the active compound in such a way as to apply the particular amounts of active compound desired per unit area. The concentration of the spray liquor is chosen so that the particular desired amounts of active compound are applied in 2000 l of water/ha.
as §5, §6

For experiment [3], the system named is Chenopodium. The experiment in a line: Post-emergence test, Chenopodium. To be noted: application rates between 30 and 500 g/ha, after three weeks. As for the experimental part:
as §1, §2, §3, §7, §5, §6

For another experiment, the system named is wheat. The experiment in a line: Pre-emergence test, crop tolerance wheat. Particulars: application rates between 8 and 125 g/ha, after three weeks. How it is done: as §1, §2, §3, §4, §5, §6
For experiment [4], the system named is Matricaria. Kind of experiment: Post-emergence test, Matricaria. Particulars: application rates between 30 and 500 g/ha, after three weeks. As for the experimental part:
as §1, §2, §3, §7, §5, §6

Experiment [5] concerns Chenopodium. The experiment in a line: Pre-emergence test, Chenopodium. Particulars: application rates between 8 and 125 g/ha, after three weeks. How it is done:
as §1, §2, §3, §4, §5, §6

In experiment [6] the test system is Abutilon. The experiment in a line: Pre-emergence test, Abutilon. Particulars: application rates between 8 and 125 g/ha, after three weeks. As for the experimental part:
as §1, §2, §3, §4, §5, §6

Turning to `COc1cc(-n2c(=O)cc(C(F)(F)F)n(C)c2=O)c(F)cc1C#N` [Example 2, 1-(4-cyano-2-fluoro-5-methoxy-phenyl)-3,6-dihydro-2,6-dioxo-3-methyl-4-trifluoromethyl-1(2H)-pyrimidine], the “degree of damage to the plants, % damage” value in the experiment with Matricaria [1] is recorded as 100 %/o; with Abutilon [2], 100%; in the experiment with Chenopodium [3], 100%; in the experiment with Matricaria [4] it was 100%; in the experiment on Chenopodium [5], 100 %/o; in the experiment on Abutilon [6], 100%. The “degree of damage to the plants, % damage (tolerance by crops)” value in the experiment on wheat is recorded as 0%.
